Test results from US8304206B2, “Mass spectrometry assays for identifying compounds that activate deacetylases” (Sirtris Pharmaceuticals, Inc., priority 2005, dated 2012).
Where two headings read alike, the source gives them in different places. No end group written: not given here.

Experiments:
SIRT1 [1] = biological target: T1, SIRT1 (Homo sapiens, UniProt Q96EB6); assay: SIRT1 Km for NAD+ (mass spectrometry); type: biochemical; details: 50 μM Acetylated Peptide Substrate, 1% DMSO
T1 sequence (Q96EB6 1-747): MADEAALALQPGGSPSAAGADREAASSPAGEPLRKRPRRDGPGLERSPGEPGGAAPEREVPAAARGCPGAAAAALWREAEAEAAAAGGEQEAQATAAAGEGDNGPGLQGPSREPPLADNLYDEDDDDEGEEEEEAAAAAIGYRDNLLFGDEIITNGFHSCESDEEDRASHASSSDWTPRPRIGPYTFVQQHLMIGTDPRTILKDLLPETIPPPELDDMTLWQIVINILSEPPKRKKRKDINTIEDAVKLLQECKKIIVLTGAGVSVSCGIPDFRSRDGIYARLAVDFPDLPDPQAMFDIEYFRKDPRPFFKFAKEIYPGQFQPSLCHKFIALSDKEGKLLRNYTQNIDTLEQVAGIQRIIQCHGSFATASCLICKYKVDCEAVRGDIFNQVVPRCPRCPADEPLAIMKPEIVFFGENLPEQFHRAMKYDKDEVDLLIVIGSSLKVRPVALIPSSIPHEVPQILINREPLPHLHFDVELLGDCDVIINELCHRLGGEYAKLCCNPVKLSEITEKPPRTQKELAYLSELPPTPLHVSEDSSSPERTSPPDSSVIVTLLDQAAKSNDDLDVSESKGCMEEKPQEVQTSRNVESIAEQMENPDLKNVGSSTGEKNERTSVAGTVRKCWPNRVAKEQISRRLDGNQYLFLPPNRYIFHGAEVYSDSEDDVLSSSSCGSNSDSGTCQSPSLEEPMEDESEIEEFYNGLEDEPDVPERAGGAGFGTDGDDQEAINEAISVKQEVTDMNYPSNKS

SIRT1 [2] = biological target: T1, SIRT1; details: Sirt1, Fluorescent, cited from earlier work
Sirt2 [3] = biological target: T2, Sirt2 (Homo sapiens, UniProt Q8IXJ6); details: Sirt2, Fluorescent, cited from earlier work
T2 sequence (Q8IXJ6 1-389): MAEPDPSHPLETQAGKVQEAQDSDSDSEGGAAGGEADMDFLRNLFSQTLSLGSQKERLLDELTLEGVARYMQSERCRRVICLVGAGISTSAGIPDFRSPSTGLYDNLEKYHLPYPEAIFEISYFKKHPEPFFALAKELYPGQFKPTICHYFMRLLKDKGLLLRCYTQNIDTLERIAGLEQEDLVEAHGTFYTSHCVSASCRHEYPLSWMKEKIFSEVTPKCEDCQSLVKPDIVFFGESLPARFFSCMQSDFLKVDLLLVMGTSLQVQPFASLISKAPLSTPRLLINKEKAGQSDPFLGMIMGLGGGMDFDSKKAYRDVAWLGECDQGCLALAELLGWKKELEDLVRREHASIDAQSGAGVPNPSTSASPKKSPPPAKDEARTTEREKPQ

Sirt3 = biological target: T3, Sirt3 (Homo sapiens, UniProt Q9NTG7); details: Sirt3, Fluorescent, cited from earlier work
T3 sequence (Q9NTG7 1-399): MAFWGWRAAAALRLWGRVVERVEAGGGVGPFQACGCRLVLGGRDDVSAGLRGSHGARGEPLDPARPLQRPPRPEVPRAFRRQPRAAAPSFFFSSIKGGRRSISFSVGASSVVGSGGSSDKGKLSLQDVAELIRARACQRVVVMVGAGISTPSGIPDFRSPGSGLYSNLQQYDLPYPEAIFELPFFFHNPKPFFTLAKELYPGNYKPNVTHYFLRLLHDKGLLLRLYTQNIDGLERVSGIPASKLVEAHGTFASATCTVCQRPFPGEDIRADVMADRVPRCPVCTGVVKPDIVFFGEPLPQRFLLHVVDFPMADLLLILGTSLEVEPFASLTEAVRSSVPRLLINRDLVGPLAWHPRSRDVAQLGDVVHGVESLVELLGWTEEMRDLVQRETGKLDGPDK

SIRT1 [4] = biological target: T1, SIRT1; details: Sirt1, Nicotinamide release, read-out: NAD Km, cited from earlier work
SIRT1 [5] = biological target: T1, SIRT1; details: Sirt1, FRET; peptide p53 20 mer (aa 372-387) *FL; read-out: NAD Km; cited from earlier work
Sirt2 [6] = biological target: T2, Sirt2; details: Sirt2, FRET; peptide p53 20 mer (aa 372-387) *FL; read-out: NAD Km; cited from earlier work
SIRT1 [7] = biological target: T1, SIRT1; details: Sirt1, Nicotinamide release; peptide p53 19 mer (aa 368-386) no FL; read-out: NAD Km; cited from earlier work
SIRT1 [8] = biological target: T1, SIRT1; assay: Effect of compounds on the Km of SIRT1 for Acetylated Peptide Substrate (mass spectrometry); type: biochemical; details: vs DMSO Km
NCI-H358 cells = assay: Western blot of mitochondrial mass biomarkers; type: cell-based, human; details: 48 hours; 0, 1, 10 or 100 uM
Procedure: Western blots were conducted to correlate an observed increase in cellular ATP levels upon exposure of cells to a sirtuin activating compound to an increase in mitochondrial mass. […] Cell lysates were then prepared and specific mitochondrial proteins were quantitated by western analysis using antibodies specific to the following proteins: Succinate-Ubiquinol Oxidoreductase (Mitochondrial Complex II Protein, mouse monoclonal, InVitrogen, Cat. #A11142); ATP synthase F1F0 (Mitochondrial Complex V Protein, mouse monoclonal, InVitrogen, Cat.# A21350); NADH-Ubiquinol Oxidoreductase (Mitochondrial Complex I Protein, mouse monoclonal, InVitrogen, Cat. #A21344). Normalization was to alpha tubulin using a rabbit polyclonal (Santa Cruz Biotech, Cat # SC-9104). Secondary antibody used for specific protein detection was AlexaFluor 680 conjugated […] IgG (Goat) (Rockland Immunochemicals, Cat.#610-132-121) and for tubulin expression was IRDye 800 goat anti-mouse IgG (InVitrogen Cat. # A21076). Protein quantification was preformed using infrared dye labeled secondary antibodies followed by blot scan using the Licor® Odyssey® scanner.

[9] = peptide p53 (aa 317-320) *FL, read-out: NAD Km

In the case of `NC(=O)c1ccc[n+]([C@@H]2O[C@H](COP(=O)([O-])OP(=O)(O)OC[C@H]3O[C@@H](n4cnc5c(N)ncnc54)[C@H](O)[C@@H]3O)[C@@H](O)[C@H]2O)c1` [NAD^+], the Km (SIRT1 [1]) is listed as 220 µM, the Km (SIRT1 [2]; peptide p53 (aa 379-382) *FL, read-out: NAD Km) is listed as 558 µM and the Km (Sirt2 [3]; [9]) is listed as 547 µM. For the same compound, the Km (Sirt3; [9]) was 2030 µM, the Km (SIRT1 [4]; peptide p53 (aa 368-386) *FL) was 192 µM and the Km (SIRT1 [4]; peptide p53 (aa 368-386) no FL) was 132 µM. For the same compound, the Km (SIRT1 [5]) was 90 µM, the Km (Sirt2 [6]) was 42 µM and the Km (SIRT1 [7]) was 133 µM.

With `Oc1ccc(C=Cc2cc(O)cc(O)c2)cc1` [resveratrol] the “decrease of Km for peptide substrate” value (SIRT1 [8]; 1.2 μM resveratrol) was 2%, the “decrease of Km for peptide substrate” value (SIRT1 [8]; 3.7 μM resveratrol) was 14% and the “decrease of Km for peptide substrate” value (SIRT1 [8]; 11 μM resveratrol) was 14%. The “decrease of Km for peptide substrate” value (SIRT1 [8]; 33 μM resveratrol) was 32%, the “decrease of Km for peptide substrate” value (SIRT1 [8]; 100 μM resveratrol) was 46% and the “levels of mitochondrial mass biomarkers” value (NCI-H358 cells) was “increases in the levels of mitochondrial mass biomarkers”.

For “p53 (aa 317-320) *FL (QPKK; also: fluorescent label; UniProt P04637 317-320, looked up, fragment)”, the Km (Sirt2 [3]; read-out: Peptide Km) is given as 186 µM and the Km (Sirt3; read-out: Peptide Km) is given as 32 µM.

In the case of “p53 (aa 379-382) *FL (RHKK(Ac); not fully specified (C-terminus); printed as Arg-His-Lys-Lys; also: fluorescent label; UniProt P04637 379-382, looked up, fragment)”, the Km (SIRT1 [2]; read-out: Peptide Km) is listed as 64 µM.
